# From patent US5137920A, “Method of treating fungal infections” (Hoffmann-La Roche Inc., priority 1989, dated 1992)
# Structures can show the parent of a compound that is named as a salt. Where two headings read alike, the source gives them in different places.
# Tests used:
# [1] = system: Candida albicans; assay: Agar dilution method, application alone and in combination with ketoconazole (synergistic activity); format: cell-based; conditions: for MIC: Candida albicans, 48 h, casitone agar, 37° C., 2 days; for FIC (fractional inhibitory concentration): Compound 1 + ketoconazole, synergistic if <0.5
# [2] = target: T1, 2,3-epoxysqualene-lanosterol cyclase (Candida albicans, UniProt Q04782); assay: Inhibition of 2,3-epoxysqualene-lanosterol cyclase from Candida albicans (14C-squalene epoxide, cell-free extract); format: biochemical
# T1 construct: there was obtained a cell-free extract (CFE) as the supernatant; endogenous in cells; host or cells: Candida albicans culture (cell-free extract, 10000 g supernatant of ruptured protoplasts)
# T1 sequence (Q04782 whole entry): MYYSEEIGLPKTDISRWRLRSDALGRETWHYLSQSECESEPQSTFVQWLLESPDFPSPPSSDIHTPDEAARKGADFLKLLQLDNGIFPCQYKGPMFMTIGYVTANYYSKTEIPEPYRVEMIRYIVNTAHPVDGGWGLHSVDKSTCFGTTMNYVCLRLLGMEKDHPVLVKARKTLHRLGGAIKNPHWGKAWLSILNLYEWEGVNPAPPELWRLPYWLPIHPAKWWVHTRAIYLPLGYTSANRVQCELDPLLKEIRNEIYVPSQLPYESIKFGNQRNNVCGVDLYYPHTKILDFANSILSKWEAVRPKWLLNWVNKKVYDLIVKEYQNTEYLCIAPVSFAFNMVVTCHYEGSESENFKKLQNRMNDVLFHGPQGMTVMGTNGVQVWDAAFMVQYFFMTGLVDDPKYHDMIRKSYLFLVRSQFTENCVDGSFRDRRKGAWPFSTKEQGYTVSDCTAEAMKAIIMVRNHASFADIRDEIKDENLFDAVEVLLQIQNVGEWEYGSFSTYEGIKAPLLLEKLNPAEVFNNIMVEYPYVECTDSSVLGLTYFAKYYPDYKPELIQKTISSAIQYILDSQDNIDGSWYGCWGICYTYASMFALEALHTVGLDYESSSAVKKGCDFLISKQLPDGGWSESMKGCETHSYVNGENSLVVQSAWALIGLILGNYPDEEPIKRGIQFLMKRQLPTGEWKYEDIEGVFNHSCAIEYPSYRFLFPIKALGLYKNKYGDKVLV
# [3] = Acute toxicity in the case of subcutaneous administration to mice; conditions: mouse, in vivo, sc
# Protocol: The IC50 values were determined graphically and are given in μg of test substance per ml. Table I contains IC50 values determined in the above test for representative members of the class of compound defined by formula I as well as data concerning the acute toxicity in the case of subcutaneous administration to mice (LD50 in mg/kg).
# [4] = C. albicans cell-free extract, pH 6.9, 30°, 1 hour, read-out: IC50 (converted)
compound,measurement,setting,value
"CC(=O)N1CCN(c2ccc(OCC3COC(Cn4ccnc4)(c4ccc(Cl)cc4Cl)O3)cc2)CC1 (stereo not drawn) [Ketoconazole, reference compound]",MIC in combination,"[1]; C. albicans B4, Ketoconazole in combination with Compound 1",0.15 µg/mL
same,MIC in combination,"[1]; C. albicans B5, Ketoconazole in combination with Compound 1",0.075 µg/mL
same,MIC in combination,"[1]; C. albicans H12, Ketoconazole in combination with Compound 1",0.3 µg/mL
same,MIC in combination,"[1]; C. albicans H29, Ketoconazole in combination with Compound 1",0.075 µg/mL
same,MIC in combination,"[1]; C. albicans H42, Ketoconazole in combination with Compound 1",0.15 µg/mL
same,MIC,"[1]; C. albicans B4, Ketoconazole alone",2.5 µg/mL
same,MIC,"[1]; C. albicans B5, Ketoconazole alone",0.15 µg/mL
same,MIC,"[1]; C. albicans H12, Ketoconazole alone",5 µg/mL
same,MIC,"[1]; C. albicans H29, Ketoconazole alone",1.29 µg/mL
same,MIC,"[1]; C. albicans H42, Ketoconazole alone",5 µg/mL
"C=CCN(C)CCCCCCCc1ccc(C(=O)c2ccccc2)cc1 [Compound 21, 4-[7-(Allylmethylamino)heptyl]benzophenone]",IC50,[2],143 nM
"CN(C)CCCCCCCc1ccc(C(=O)c2ccccc2)cc1 [Compound 1, 4-[7-(dimethylamino)heptyl]benzophenone]",IC50,[2],526 nM
same,LD50,[3],312 to 625 mg/kg
same,FIC (fractional inhibitory concentration),[1]; C. albicans B4,0.06
same,MIC in combination,"[1]; C. albicans B4, Compound 1 in combination with ketoconazole",1.2 µg/mL
same,FIC (fractional inhibitory concentration),[1]; C. albicans B5,0.53
same,MIC in combination,"[1]; C. albicans B5, Compound 1 in combination with ketoconazole",1.2 µg/mL
same,FIC (fractional inhibitory concentration),[1]; C. albicans H12,0.19
same,MIC in combination,"[1]; C. albicans H12, Compound 1 in combination with ketoconazole",2.5 µg/mL
same,FIC (fractional inhibitory concentration),[1]; C. albicans H29,0.19
same,MIC in combination,"[1]; C. albicans H29, Compound 1 in combination with ketoconazole",1.2 µg/mL
same,FIC (fractional inhibitory concentration),[1]; C. albicans H42,0.005
same,MIC in combination,"[1]; C. albicans H42, Compound 1 in combination with ketoconazole",1.2 µg/mL
same,MIC,"[1]; C. albicans B4, Compound 1 alone",20 µg/mL
same,MIC,"[1]; C. albicans B5, Compound 1 alone",20 µg/mL
same,MIC,"[1]; C. albicans H12, Compound 1 alone",20 µg/mL
same,MIC,"[1]; C. albicans H29, Compound 1 alone",10 µg/mL
same,MIC,"[1]; C. albicans H42, Compound 1 alone",20 µg/mL
same,synergistic activity,"[1]; in combination with ketoconazole, C. albicans",confirms the synergistic activity
"CN(C)CCCCCCCCc1ccc(C(=O)c2ccccc2)cc1 [Compound 16, 4-[8-(Dimethylamino)octyl]benzophenone]",IC50,[2]; [4],415 nM
"CN(C)CCCCCCCc1ccc(C(=O)c2ccc(Cl)cc2Cl)cc1 [Compound 19, 2,4-Dichloro-4'-[7-(dimethylamino)heptyl]benzophenone]",IC50,[2]; [4],1910 nM
"Cc1ccccc1C(=O)c1ccc(CCCCCCN(C)C)cc1 [Compound 27, 4-[6-(Dimethylamino)hexyl]-2'-methylbenzophenone]",IC50,[2]; [4],495 nM
CN(C)CCCc1ccc(C(=O)c2ccccc2)cc1 [Compound 14],IC50,[2]; [4],18700 nM
CN(C)CCCCCCCc1ccc(C(=O)c2ccc(C#N)cc2)cc1 [Compound 20],IC50,[2]; [4],746 nM
"C=CCN(C)CCCCCCCc1ccc(C(=O)c2ccc(C#N)cc2)cc1 [Compound 23, 4-[4'-[7-(Allylmethylamino)heptyl]benzoyl]benzonitrile]",IC50,[2],160 nM
"CN(C)CCCCCCc1ccc(C(=O)c2cccc(Br)c2)cc1 [Compound 26, 3-Bromo-4'-[6-(dimethylamino)hexyl]benzophenone]",IC50,[2]; [4],1080 nM
"CN(C)CCCc1ccc(C(=O)CCc2ccc(Cl)cc2)cc1 [Compound 7, 3-(4-chlorophenyl)-4'-[3-(dimethylamino)propyl]propiophenone hydrochloride]",IC50,[2]; [4],1090 nM
"CN(C)CCCCCCCc1ccc(C(=O)c2ccc(F)cc2F)cc1 [Compound 5, 2,4-difluoro-4'-[7-(dimethylamino)heptyl]benzophenone]",IC50,[2]; [4],1530 nM
"CN(C)CCCCCCCc1ccc(C(=O)c2ccc(F)cc2)cc1 [Compound 3, 4'-fluoro-4-[7-(dimethylamino)heptyl]benzophenone]",IC50,[2]; [4],1230 nM
"CN(C)CCCCCCc1ccc(C(=O)c2ccccc2Cl)cc1 [Compound 29, 2-Chloro-4'-[6-(dimethylamino)hexyl]benzophenone]",IC50,[2]; [4],320 nM
CN(C)CCCCCCCCc1ccc(C(=O)c2ccccc2)cc1 [Compound 15],IC50,[2]; [4],1210 nM
"O=C(CCc1ccccc1)c1ccc(CCCN2CCCC2)cc1 [Compound 13, 3-phenyl-4'-[3-(1-pyrrolidinyl)propyl]propiophenone]",IC50,[2]; [4],1240 nM
"CN(C)CCCc1ccc(C(=O)/C=C/c2ccc(Cl)cc2)cc1 [Compound 6, (E)-3-(4-chlorophenyl)-4'-[3-(dimethylamino)propyl]acrylophenone]",IC50,[2]; [4],3660 nM
"C=CCN(C)CCCCCCc1ccc(C(=O)c2ccc(Br)cc2)cc1 [Compound 24, 4-[6-(Allylmethylamino)hexyl]-4'-bromobenzophenone]",IC50,[2],229 nM
same,LD50,[3],312 to 625 mg/kg
"CN(C)CCCCCCCc1ccc(C(=O)c2ccc(C(F)(F)F)cc2)cc1 [Compound 4, 4-[7-(dimethylamino)heptyl]-4'-(trifluoromethyl)benzophenone]",IC50,[2]; [4],3450 nM
"CN(C)CCCCCCCc1ccc(C(=O)c2ccc(Br)cc2)cc1 [Compound 18, 4-Bromo-4'-[7-(dimethylamino)heptyl]benzophenone]",IC50,[2]; [4],2140 nM
"CN(C)CCCCCCCc1ccc(C(=O)Cc2ccccc2)cc1 [Compound 2, 4'-[7-(dimethylamino)heptyl]-2-phenylacetophenone]",IC50,[2]; [4],1420 nM
"CN(C)CCCc1ccc(C(=O)CCc2cccc(Cl)c2)cc1 [Compound 10, 3-(3-chlorophenyl)-4'-[3-(dimethylamino)propyl]propiophenone]",IC50,[2]; [4],1330 nM
"CN(C)CCCCCCCc1ccc(C(=O)c2ccc(Cl)cc2)cc1 [Compound 17, 4-chloro-4'-[7-(dimethylamino)heptyl]benzophenone]",IC50,[2]; [4],1370 nM
"O=C(/C=C/c1ccccc1)c1ccc(CCCN2CCCC2)cc1 [Compound 12, (E)-3-phenyl-4'-[3-(1-pyrrolidinyl)propyl]acrylophenone]",IC50,[2]; [4],783 nM
"CN(C)CCCc1ccc(C(=O)CCc2ccc(F)cc2)cc1 [Compound 8, 3-(4-fluorophenyl)-4'-[3-(dimethylamino)propyl]propiophenone]",IC50,[2]; [4],1750 nM
"C=CCN(C)CCCCCCCc1ccc(C(=O)c2ccc(Br)cc2)cc1 [Compound 22, 4-[7-(Allylmethylamino)heptyl]-4'-bromobenzophenone]",IC50,[2],443 nM
"CN(C)CCCCCCc1ccc(C(=O)c2ccc(Br)cc2)cc1 [Compound 25, 4-Bromo-4'-[6-(dimethylamino)hexyl]benzophenone hydrochloride]",IC50,[2]; [4],2170 nM
CN(C)CCCc1ccc(C(=O)CCc2ccc([N+](=O)[O-])cc2)cc1 [Compound 11],IC50,[2]; [4],823 nM
"CN(C)CCCCCCc1ccc(C(=O)c2ccc([N+](=O)[O-])cc2)cc1 [Compound 28, 4-[6-(Dimethylamino)hexyl]-4'-nitrobenzophenone]",IC50,[2]; [4],592 nM
"Cc1ccccc1CCC(=O)c1ccc(CCCN(C)C)cc1 [Compound 9, 3-(2-methylphenyl)-4'-[3-(dimethylamino)propyl]propiophenone]",IC50,[2]; [4],355 nM
